The term IC50 denotes the point on the concentration scale where inhibition reaches its midpoint.

“And” between values parts separate entries of the source, which are not always exact repeats. Identical values can stand only once. “Also recorded” adds a separate entry of the source. Like-named read-outs stand apart in the source and are kept apart here.

Data on seven compounds can be found in patent US8637679B2, “Process for the isolation of organic compounds useful for the treatment of cancer” (Council of Scientific and Industrial Research, priority 2011, dated 2014).

In data set [1] the test system is HeLa. Briefly: 7-AAD flow cytometric apoptosis, HeLa. Type of data set: cell-based, human. On the technique in general: Flow cytometry measures light scatter and fluorescence of single cells or particles in a stream.
Protocol: (§5) U87MG, LN229, HeLa, SiHa and ME180 (1×10^6 cells) cells were cultured in 6-well plates in presence or absence of Mahanine (25 μM) for 24 hrs. Cells were washed in PBS, incubated with 7-Aminoactinomycin D (7-AAD) at 4° C. for 20 min and processed. Data acquisition was done on a FACSCalibur flow cytometer (BD) at excitation wavelength at 488 nm and emission wavelength at 647 nm and analyzed with CellQuestPro software.
The subject of data set [2] is glioma (T98G) and cervical (HeLa) cancer cells. Briefly: Comparative cytotoxicity of mahanine and analogs by MTT. The class given is cell-based, human. The settings on record: MTT. The method, then:
(§1) Human cervical cancer cell lines (HeLa, ME-180 and SiHa), brain tumor cell lines (U87MG, U373MG, U87MG EGFRvIII, T98G, A172 and LN229), lymphoid leukemia (MOLT-3, MOLT-4, REH and CEMC-7), myloid leukemia (K562), pancreatic cancer (MIAPaCa-2, AsPC-1, Panc-1 and Panc 10.05), lung cancer (A549) and colon cancer (HCT116 and SW480) cell lines from American Type Culture Collection, Manassas, Va., USA were grown in IMDM or RPMI (cell specific) Medium supplemented with 10% fetal bovine serum and 1% antibiotic-antimycotic. Cells were cultured in 37° C. in an atmosphere of 5% CO2.
(§2) Viability of cancer cell lines after treatment as at the indicated times was determined by MTT assay. Briefly, 10,000 cells were plated in triplicate in 96 well plates and incubated for 24 and 48 hours in complete media in presence of varying dose of mahanine (0-50 μM). 100 ug MTT was added in each well. Incubate the plate for 1-4 hours at 37° C. and humidified 5% CO2 atmosphere. Absorbance was recorded at 550 nm with 96 well plate readers.

The subject of data set [3] is ME180. Briefly: 7-AAD flow cytometric apoptosis, ME180. The class given is cell-based, human. The settings on record: ME180, paclitaxel 10 μM alone.
Protocol: as §5
Data set [4] has as its system REH. Description: MTT cell viability assay, REH. The class given is cell-based, human. As to conditions: 48 hrs. The method, then: as §1, §2
On the technique in general: Tetrazolium dyes change colour on reduction, which living cells bring about.

For data set [5], the system named is T98G. Briefly: MTT cell viability assay, T98G. Type of data set: cell-based, human. The settings on record: 48 hrs. The protocol:
as §1, §2

For data set [6], the system named is CEM C7. Briefly: MTT cell viability assay, CEM C7. The settings on record: CEM C7, 48 hrs. The class given is cell-based, human. The protocol:
as §1, §2

Data set [7] in a line: In vivo bioavailability after oral feeding. On the set-up: species or system Balb/c mice. As to conditions: mouse, in vivo, po. The protocol:
EtOAc extract of Murraya koenigii was orally feeded to normal healthy Balb/c (100 mg/kg body weight) and blood was collected from retro orbital plexus after 30 min interval by glass capillary. Control blood was collected from the mice before the […] of extract. The Institutional Animal Ethical Committee had approved the study. Blood serum was isolated and the serum protein was separated by centrifugation in ice-cold acetone. Supernatant was evaporated to dryness and residual part was dissolved in minimum volume of MeOH and injected into the HPLC column.

In data set [8] the test system is U87MG. Briefly: MTT cell viability assay, U87MG. The class given is cell-based, human. The settings on record: 48 hrs. The protocol: as §1, §2
Data set [9] has as its system U373MG. Briefly: MTT cell viability assay, U373MG. The class given is cell-based, human. As to conditions: 48 hrs. The method, then: as §1, §2
The subject of data set [10] is cancer cell lines. Briefly: MTT assay, pooled cancer cell lines of several cancer types. The class given is cell-based, human. As to conditions: 48 hr. The method, then: as §1, §2
In data set [11] the test system is SW480. Description: MTT cell viability assay, SW480. Type of data set: cell-based, human. As to conditions: SW480, 48 hrs. The method, then: as §1, §2
Data set [12] concerns MIAPaCa-2. Description: MTT cell viability assay, MIAPaCa-2. The class given is cell-based, human. As to conditions: MIAPaCa-2, 48 hrs. The protocol: as §1, §2
Data set [13] concerns A172. Briefly: MTT cell viability assay, A172. Type of data set: cell-based, human. As to conditions: A172, 48 hrs. The protocol: as §1, §2
Data set [14] deals with Panc1. Description: MTT cell viability assay, Panc1. The settings on record: Panc1, 48 hrs. The class given is cell-based, human. The protocol: as §1, §2
For data set [15], the system named is K562. Briefly: MTT cell viability assay, K562. Type of data set: cell-based, human. The settings on record: K562, 48 hrs. The method, then: as §1, §2
Data set [16] relates to HCT116. Description: MTT cell viability assay, HCT116. The class given is cell-based, human. The settings on record: HCT116, 48 hrs. The method, then: as §1, §2
The subject of data set [17] is Panc10.05. Description: MTT cell viability assay, Panc10.05. The class given is cell-based, human. As to conditions: Panc10.05, 48 hrs. The method, then: as §1, §2
The subject of data set [18] is HeLa. Briefly: MTT cell viability assay, HeLa. The class given is cell-based, human. The settings on record: 48 hrs. The protocol:
as §1, §2

Data set [19] concerns Molt-4. Briefly: MTT cell viability assay, Molt-4. As to conditions: Molt-4, 48 hrs. Type of data set: cell-based, human. The protocol: as §1, §2
For data set [20], the system named is LN229. Description: MTT cell viability assay, LN229. The class given is cell-based, human. As to conditions: LN229, 48 hrs. The protocol:
as §1, §2

Data set [21] deals with A549. Description: MTT cell viability assay, A549. The class given is cell-based, human. The settings on record: A549, 48 hrs. The method, then:
as §1, §2

The test system of data set [22] is Vero. Briefly: MTT cell viability assay, Vero normal cells. The class given is cell-based, African monkey. As to conditions: Vero normal cell line, 48 hrs.
For data set [23], the system named is glioma cells (U87MG, U373MG, LN229, A172 and T98G). Briefly: MTT assay, panel of glioma cell lines. Type of data set: cell-based, human. The settings on record: range over U87MG, 48 hr, read-out: IC50 values against different glioma cell lines. The protocol:
as §1, §2

The subject of data set [24] is NCIH23. Description: MTT cell viability assay, NCIH23. Type of data set: cell-based, human. As to conditions: NCIH23, 48 hrs. The protocol:
as §2

In data set [25] the test system is AsPC1. Description: MTT cell viability assay, AsPC1. The class given is cell-based, human. As to conditions: AsPC1, 48 hrs. The method, then:
as §1, §2

Data set [26] concerns Molt-3. Briefly: MTT cell viability assay, Molt-3. Type of data set: cell-based, human. The settings on record: Molt-3, 48 hrs. The method, then: as §1, §2
The target of data set [27] is Hsp90β (Homo sapiens, UniProt P08238). Description: γ-ATP sepharose binding assay, Hsp90β. As to conditions: mahanine at 50 and 100 μM. The protocol:
(§3) 5 μg of purified Hsp90α and Hsp90β were pre-incubated separately on ice with 200 μL incubation buffer (10 mM Tris-Hcl, 50 mM KCl, 5 mM MgCl2, 2 mM DTT, 20 mM Na2MoO4, 0.01% NP40, pH 7.5) containing mahanine or 17-AAG and incubated for 30 mins on ice. After the incubation, 25 μL pre-equilibrated γ-phosphate ATP sepharose added and again incubated at 37° C. with frequent agitation.
(§4) Sepharose subsequently washed and analyzed by SDS-PAGE. Then the blot was probed with anti Hsp90 antibody and developed by ECL.

In data set [28] the target is Hsp90α (Homo sapiens, UniProt P07900). Description: γ-ATP sepharose binding assay, Hsp90α. The settings on record: mahanine at 50 and 100 μM. The protocol:
as §3, §4

Hsp90β, sequence (P08238 whole entry): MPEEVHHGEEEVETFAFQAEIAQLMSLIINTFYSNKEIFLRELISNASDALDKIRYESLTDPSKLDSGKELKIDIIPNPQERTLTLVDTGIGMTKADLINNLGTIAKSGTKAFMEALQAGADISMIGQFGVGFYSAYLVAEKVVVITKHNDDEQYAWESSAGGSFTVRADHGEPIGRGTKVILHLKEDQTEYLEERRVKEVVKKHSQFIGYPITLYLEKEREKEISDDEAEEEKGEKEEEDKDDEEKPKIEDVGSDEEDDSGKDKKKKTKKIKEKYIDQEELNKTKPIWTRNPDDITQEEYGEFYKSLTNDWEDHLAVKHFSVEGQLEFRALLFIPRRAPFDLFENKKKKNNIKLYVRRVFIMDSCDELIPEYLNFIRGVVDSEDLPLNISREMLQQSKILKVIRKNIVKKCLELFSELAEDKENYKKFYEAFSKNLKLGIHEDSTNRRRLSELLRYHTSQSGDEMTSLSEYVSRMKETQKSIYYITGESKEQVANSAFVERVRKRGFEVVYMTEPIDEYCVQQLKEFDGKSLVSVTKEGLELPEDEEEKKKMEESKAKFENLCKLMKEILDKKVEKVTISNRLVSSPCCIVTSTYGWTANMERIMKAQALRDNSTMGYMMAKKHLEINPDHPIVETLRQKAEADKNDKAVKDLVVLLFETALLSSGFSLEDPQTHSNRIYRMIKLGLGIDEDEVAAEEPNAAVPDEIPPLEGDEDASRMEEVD

In the case of `N.N.[Cl][Pt][Cl]` [Cisplatin, cisplatin], the “apoptosis (7-AAD)” value in data set [1] (cisplatin 40 μM alone) is around 7%.

Consider `COc1ccc2c(c1)[nH]c1c3c(c(C)cc12)OC(C)(CCC=C(C)C)C=C3` (stereo not shown) [O-methylated mahanine], for which, in [2], the “cytotoxicity (activity in words)” value is “inactive; also recorded: more or less inactive”.

Turning to `CC(C)=CCCC1(C)C=Cc2c(c(C)cc3c4ccccc4n(C)c23)O1` (stereo not shown) [N-methylated mahanimbine], the “cytotoxicity (activity in words)” value in data set [2] was “inactive; also recorded: more or less inactive”.

With `CC(=O)O[C@H]1C(=O)[C@@]2(C)[C@H]([C@H](OC(=O)c3ccccc3)[C@]3(O)C[C@H](OC(=O)[C@H](O)[C@@H](NC(=O)c4ccccc4)c4ccccc4)C(C)=C1C3(C)C)[C@]1(OC(C)=O)CO[C@@H]1C[C@@H]2O` [Paclitaxel, paclitaxel, reference compound], the results for the “apoptosis (7-AAD)” value in [1] (paclitaxel 10 μM alone) and in data set [3] were 16.19% and 18.21%, respectively.

Turning to C20-C21 epoxy mahanine, in data set [4], half-maximal inhibition (IC50) required 18.4 ± 1.1 µM.

As to `CC(C)=CCCC1(C)C=Cc2c(c(C)cc3c2[nH]c2ccccc23)O1` (stereo not shown) [Mahanimbine, mahanimbine], the IC50 was 43.6 ± 0.2 µM in data set [5]; 27.4 ± 0.3 µM in data set [6]; 42.6 ± 0.4 µM in data set [8]; 41.2 ± 0.25 µM in [9]; 10 to 20 µM in data set [10] (range over glioma and cervical cancer cell lines, read-out: IC50, glioma and cervical cancer cells); 20 to 45 µM and 30 to 50 µM in data set [10] (range over leukemia, glioma, cervical, pancreatic, colon and lung cancer lines, MTT, read-out: IC50, cell lines of different cancer types). Also, the IC50 in data set [11] came out at 36.4 ± 0.5 µM; in data set [12] it was 35.2 ± 0.1 µM; in [4] it was 24.3 ± 0.7 µM; in data set [13], 38.4 ± 0.8 µM; in [14] it was 32.8 ± 0.1 µM; in data set [15] it was 25.1 ± 0.1 µM. Besides, the IC50 was 33.5 ± 0.3 µM in [16]; 38.2 ± 0.1 µM in [17]; 34.8 ± 0.1 µM in data set [18]; 36 µM in [18] (listed as Mahanimbin); 28 ± 0.2 µM in data set [19]; 46.3 ± 0.1 µM in [20]. The IC50 is 37 ± 0.1 µM in data set [21]; above 100 µM in data set [22]; 38 to 47 µM in data set [23]; 31.8 ± 0.2 µM in data set [24]; 31.75 ± 0.2 µM in data set [25]; 22.6 ± 0.6 µM in data set [26]. The “secondary metabolites in blood (mass spectroscopy)” value in [7] is reported as “no production of secondary metabolites”. Also, in [7], the “time to appearance in blood circulation after oral administration” value was at most 30 min.

As for “17-allylamino, 17-demethoxygeldanamycin [17AAG, reference compound]”, the “effect on ATP binding to purified Hsp90” value in data set [27] and in data set [28] was “easily hindered the ATP binding” in each case.
